Series [1] has as its system rat. Particulars: Combined chronic toxicity/carcinogenicity; sprague dawley; Oral; Feed; dose end: 104 week; group: systemic; systemic / in life observation / body weight / body weight + systemic / in life observation / body weight / body weight gain + systemic / in….
The test system of series [2] is mouse. Particulars: Carcinogenicity; cd1; Oral; Feed; dose end: 78 week; group: systemic; systemic / in life observation / body weight / body weight + systemic / in life observation / body weight / body weight gain.
Series [3] relates to rat. To be noted: Subchronic oral toxicity in rodents, sprague dawley, Feed, dose end: 13 week, group: systemic.
For series [4], the system named is rat. To be noted: Fertility (Segment I); sprague dawley; Oral; Gavage/Intubation; dose end: 63 day; group: parental; systemic / in life observation / body weight / body weight + systemic / in life observation / body weight / body weight gain + systemic / in….
Series [5] deals with rat. To be noted: Fertility (Segment I), Oral, Gavage/Intubation, dose end: 6 GD.
In series [6] the test system is rat. Particulars: Sub-acute repeat dose toxicity, sprague dawley, Oral, Gavage/Intubation, dose end: 1 month, group: systemic.
In series [7] the test system is rat. Particulars: Multigenerational reproductive toxicity study, sprague dawley, Oral, Feed, dose end: 2 generation, group: parental.
Series [8] has as its system rat. To be noted: Combined chronic toxicity/carcinogenicity, sprague dawley, Oral, Feed, dose end: 104 week, group: systemic.
Series [9] has as its system rat. To be noted: Developmental neurotoxicity study, sprague dawley, Oral, Gavage/Intubation, dose end: 105 PND, group: cannot be grouped.
Series [10] has as its system mouse. Particulars: Subchronic oral toxicity in rodents, b6c3f1, Gavage/Intubation, dose end: 94 day, group: systemic, systemic / pathology microscopic / liver / vacuolization cytoplasmic + systemic / clinical chemistry / alkaline phosphatase (alp/alk) / ….
The test system of series [11] is rat. Particulars: Subchronic oral toxicity in rodents, sprague dawley, Feed, dose end: 90 day, group: systemic, systemic / pathology gross / sperm measure / sperm count + systemic / pathology gross / sperm measure / sperm motility.
Where [12] appears, read: systemic / in life observation / body weight / body weight + systemic / in life observation / body weight / body weight gain.
[13] abbreviates: systemic / in life observation / body weight / body weight + systemic / in life observation / body weight / body weight gain + systemic / in….
The mark [14] stands for this setting: group: developmental, developmental / developmental malformation / bladder / [other].
[15] abbreviates: group: parental, systemic / in life observation / body weight / body weight.
[16] abbreviates: systemic / hematology / hemoglobin distribution width (hdw) / hemoglobin distribution width (hdw) + systemic / hematology / platelet / ….
Setting [17] is: systemic / in life observation / body weight / body weight gain + systemic / in life observation / body weight / body weight.
Setting [18] is: developmental / developmental landmark / eye opening / eye opening + developmental / developmental landmark / incisor eruption / incisor ….
The mark [19] stands for this setting: developmental / developmental landmark / incisor eruption / incisor eruption + developmental / developmental landmark / eye opening / eye ….

SMILES strings stand for the structures.

As for `CCCCCCCCCCCC[N+](C)(C)Cc1ccccc1.[Cl-]`, the values for the LEL in the series on rat [1], in the series with mouse [2] and in the series with rat [3] (systemic / in life observation / food consumption / food consumption + systemic / pathology gross / stomach / discolored) were 88 mg/kg/day, 229 mg/kg/day and 31.2 mg/kg/day, respectively. Also, the LOAEL in the series on rat [1] turned out to be 88 mg/kg/day; in the series with mouse [2] it was 229 mg/kg/day; in the series on rat [3] (setting [12]) it was 62 mg/kg/day. Also, the NEL in the series on rat [1] was found to be 44 mg/kg/day; in the series with mouse [2], 73.4 mg/kg/day; with rat [3] (setting [13]), 6.3 mg/kg/day. Also, the NOAEL in the series on rat [1] is 44 mg/kg/day; with mouse [2] it was 73.4 mg/kg/day; with rat [3] (setting [13]), 31.2 mg/kg/day.

Turning to `CCN1CCC2(CC1)COc1cc3c(cc12)N(C(=O)c1ccc(-c2ccc(-c4nnc(C)o4)cc2C)cc1)CC3.Cl`, the LEL turned out to be 30 mg/kg/day in the series with rat [4], 30 mg/kg/day with rat [5] (setting [14]), 30 mg/kg/day in the series on rat [5] (setting [15]) and 10 mg/kg/day in the series with rat [6] (systemic / hematology / platelet / platelet + systemic / hematology / reticulocyte / reticulocyte). Besides, the LOAEL in the series with rat [4], in the series with rat [5] (setting [14]), with rat [5] (setting [15]) and in the series on rat [6] (setting [16]) was > 30 mg/kg/day throughout. Besides, the NEL in the series with rat [4] turned out to be 10 mg/kg/day; with rat [5] (setting [14]), 10 mg/kg/day; in the series on rat [5] (setting [15]) it was 10 mg/kg/day; in the series on rat [6] (setting [16]), 3 mg/kg/day. Besides, the NOAEL in the series on rat [4], with rat [5] (setting [14]), in the series on rat [5] (setting [15]) and in the series with rat [6] (setting [16]) was ≥ 30 mg/kg/day in each case.

Consider `COC(=O)c1ccccc1S(=O)(=O)NC(=O)Nc1nc(C)nc(OC)n1` [Metsulfuron-methyl], for which the LOAEL in the series with rat [7] (systemic / in life observation / body weight / body weight gain) amounted to 250 mg/kg/day. For the same compound, in the series with rat [7] (setting [17]), the LEL came to 250 mg/kg/day, the NEL is 25 mg/kg/day and the NOAEL came out at 25 mg/kg/day. Also, in the series with rat [8] (setting [12]), the lowest observed adverse effect level (LOAEL) is 250 mg/kg/day, the NEL came to 1.25 mg/kg/day and the NOAEL amounted to 125 mg/kg/day. In addition, the LEL with rat [8] (systemic / in life observation / body weight / body weight gain + systemic / in life observation / body weight / body weight + systemic / …) was found to be 25 mg/kg/day.

For `CC(=O)OC/C=C(C)/C=C/C=C(C)/C=C/C1=C(C)CCCC1(C)C` [Retinol acetate], in the series on rat [9] (setting [18]), the LOAEL was > 34.4 mg/kg/day and the NOAEL is ≥ 34.4 mg/kg/day. Also, in the series on rat [9] (setting [19]), the LEL came out at 8.6 mg/kg/day and the NEL is < 8.6 mg/kg/day.

Regarding `CO[C@H]1/C=C/O[C@@]2(C)Oc3c(C)c(O)c4c(O)c(c(/C=N/N5CCN(C)CC5)c(O)c4c3C2=O)NC(=O)/C(C)=C\C=C\[C@H](C)[C@H](O)[C@@H](C)[C@@H](O)[C@@H](C)[C@H](OC(C)=O)[C@@H]1C` [Rifampicin], in the series with mouse [10], the LEL was found to be 100 mg/kg/day, the LOAEL came to 100 mg/kg/day, the NEL is < 100 mg/kg/day and the NOAEL is < 100 mg/kg/day.

On to `O=C(O)c1ccc(C(=O)O)cc1` [Terephthalic acid], for which, in the series on rat [11], the LEL was determined as 5820 mg/kg/day, the LOAEL is > 5820 mg/kg/day, the NEL stood at 1180 mg/kg/day and the NOAEL was ≥ 5820 mg/kg/day.

The values above are taken from EPA's ToxRefDB 2.
